Consider 22 compounds from patent US11420994B2, “Carbon-monoxide-releasing molecules and therapeutic applications thereof” (GEORGIA STATE UNIVERSITY RESEARCH FOUNDATION, INC., priority 2016, dated 2022).

Data set [1] is described as follows: Reaction of TPCPD with cyclooctynes at 50 mM, time to completion. Particulars: 50 mM concentration. The class given is physicochemical.
For data set [2], the system named is RAW cells. Put plainly: WST-1 cytotoxicity test. The class given is cell-based, mouse. How it is done:
In order to assess the cytotoxic effect of the reactants, 1 and 6a, as well as product 31, on RAW cells, the cytotoxicity test WST-1 was performed to examine induction by TPCPD (1) and BCN (6a) over varying concentrations and periods of time (FIGS. 3a-c).
Different concentrations of each molecule were assessed: from 0.78 to 100 μM for 1 and 31 and 7.8 to 1000 μM for 6a. Different time points were assessed (1 h, 4 h, 8 h and 24 h). Triton 0.1% was used as a positive control of cytotoxicity and the subsequent value was established as 100% of cytotoxicity.

The subject of data set [3] is TNF-α. Kind of data set: TNF-α ELISA in LPS treated RAW 264.7 cells pre-treated with CO prodrug. The class given is cell-based, mouse. Particulars: pre-treated 5 h, then LPS 1 h. How it is done: RAW 264.7 cells were seeded in the 48-well plate one day before the experiment.
LPS was used to initialize the inflammatory response in RAW 264.7 cells and trigger the expression of cytokines. RAW 264.7 cells were pre-treated with different concentrations of 10b or 44b product for 5 hours. Thereafter, […] LPS was added with into the cell culture media. For TNF-α test, the cell culture supernatant was collected after 1 hour of LPS treatment. For IL-6 test, the cell culture supernatant was collected after 4 hours of LPS treatment. Cell culture without LPS treatment was used as control.
10a-10d, and 100 with different release rates were chosen to test their inhibitory effect against lipopolysaccharide (LPS) induced TNF-α secretion in RAW 264.7 cells. […] This was followed by the treatment of LPS for another 1 h. Then the cell culture supernatants were subjected to ELISA assay for TNF-α levels.
(In general: In an ELISA, binding on a coated surface is turned into a signal by an enzyme label.)

The nature of data set [4]: CO release kinetics by increase of fluorescence intensity. Format: physicochemical. Particulars: DMSO/PBS (pH = 7.4) 5:1 at 37° C. How it is done: Compound 10a was dissolved indifferent solvents including CH2Cl2 (25° C.), CH3CN (25° C.), DMSO (25° C.), DMSO/PBS (10:1, 25° C.), DMSO/PBS (5:1, 25° C.), and DMSO/PBS (5:1, 37° C.) to give a final concentration of around 100 μM, and CO release was monitored by fluorescence intensity at 450 nm. Each experiment was repeated three times independently. The CO release rate (first order reaction rate) in DCM, CH3CN, DMSO, DMSO/PBS (10:1), DMSO/PBS (5:1), and DMSO/PBS (5:1, 37° C.) were different and their individual rate constant was calculated to be 2.3±0.2, 3.6±0.4, 6.6±0.6, 7.7±0.6, 11.0±1.4 and 22.4±3.2 h^−1, respectively. […] The CO release rate increased along with the polarity of the solvent.

Data set [5] in a line: Fluorescence properties of the cycloaddition products. Format: physicochemical. Particulars: for λem emission wavelength / λex excitation wavelength: of the cycloaddition products 44a-44f and 100a; for Φ quantum yield: of the cycloaddition products 44a-44f and 100a in MeOH, quinine sulfate as the standard.
The subject of data set [6] is TNBS induced colitis. Kind of data set: TNBS induced colitis in mice. The class given is in vivo.
Method: Male adult C57BL/6 mice (8-12 weeks, 20-25 g) were obtained from Sichuan University laboratory animal center, and housed in standard conditions with constant temperature (22±2° C.) and 12 h light-dark cycle, free to sterile water and standard food.
TNBS (Trinitrobenzene sulfonic acid) enema was used for colitis induction.^3 Mice were randomly assigned into four groups: sham control group, TNBS model group, 10b treatment group and 44b group. Briefly, mice were fasted for 24 h, and then lightly anesthetized with 1% isoflurane. TNBS (in saline-ethanol, 50:50, v/v) solution 50 μL was infused into the colon using a cannula with the depth of 4 cm from anus. Mice in sham control group received 50 μL vehicle (saline-ethanol, 50:50, v/v). Mice were held with a vertical position for at least 30s after infusion, for sake of homogenous distribution and retention of TNBS. Mice would not be put back to the cage until they wake up and have autonomous respiration.
Drug administration. Vehicle solution (Solutol:saline=30:70), 10b (15 mg/kg) and 44b (15 mg/kg) was i.p. injected 1 hour before model construction; and 24 h, 48 h and 72 h after model construction. Euthanasia was conducted on 1st/3rd/7th day respectively through intraperitoneally injecting of pentobarbital sodium, and samples were removed and analyzed later.
Macroscopic evaluation of colitis damage. Colons were removed quickly and lengths were measured and represented in centimeter. After that, colons were longitudinally excised and carefully washed with ice-cold normal saline. Macroscopic signs of colon damage were evaluated by an experimenter blind to the mice grouping, according to an established semi-quantitative scoring system: Ulcer (0.5 points=0.5 cm); Colonic shortening (1 point≥15%, 2 points≥25%, based on the average length of colons from the control group); Every additional presence of hemorrhage, diarrhea or fecal blood added 1 point to the score. Intestinal wall thickness was measured in millimeter and recorded as well.
Mice were dosed with 10b (15 mg/kg), 44b (15 mg/kg), or the vehicle (solutol/saline=30:70) control by intraperitoneal injection 1 h before the model construction, and then dosed again at 24 h, 48 h and 72 h time points after the model construction; and then sacrificed. Colon was removed for macroscopic evaluation of colitis damage.
Data set [7] in a line: Determination of CO release rates (fluorescence or UV absorbance). Format: physicochemical. Particulars: DMSO/PBS (4:1) at 37° C. How it is done:
For CO prodrugs with naphthalene scaffold, the CO release rate is easily done by monitoring the fluorescence intensity of the cyclized product. For the others, the CO release rate was determined by employing the UV absorbance difference between the prodrugs and the cyclized product.

Data set [8] in a line: Kinetics of the Diels-Alder reaction of TPCPD with exo-BCN (UV-Vis). The class given is physicochemical. How it is done: Separate solutions of pure TPCPD (1) and pure exo-BCN (6a) (>95-98% by H-NMR) were prepared in HPLC-grade methanol (acetonitrile, 1,2-dichloroethane, dioxane) at room temperature. The stability of TPCPD in methanol (25 μM) was examined by monitoring its absorption maximum at 335 nm. The solutions containing TPCPD (1, 50 μM, 400 μL) and 18-fold excess of exo-BCN (6a, 900 μM, 400 μL) were added into quartz cuvettes, thoroughly mixed and sealed with a PTFE cap. All kinetic runs were triplicates. Curve fitting was operated in Prism5 software.
The reaction between 1 and 6a (Scheme 8) leads to significant changes in the UV-Vis spectrum of TPCPD […] due to its conversion to the cyclization product 31 (FIG. 1a). Therefore, the reaction can be easily monitored.
It was observed that the reaction rate between TPCPD and BCN was moderately sensitive to the reaction solvent. Methanol, acetonitrile, […] (DCE), and dioxane were chosen for the kinetic studies. The reaction appears to be faster in polar solvents than in nonpolar solvents. […] In order to utilize the reaction under physiological conditions, the reaction rate was measured at physiological temperature, 37° C.

Setting [9] is: 8 h, within the concentration range studied.
Where [10] appears, read: 15 mg/kg i.p., compared to the TNBS group.

In the case of `OCC1[C@H]2CCC#CCC[C@@H]12` (some centres unmarked) [BCN], the “time in which reaction with TPCPD finished” value in data set [1] is listed as at most 5 min. Besides, the cytotoxicity entry in data set [2] (setting [9]) is “Neither 6a (FIG. 3b) and nor the product (FIG. 3c) displayed any sign of cytotoxicity”; in data set [2] (24 h, 1 mM) it was 60%.

As for `CN(CC#C[Si](c1ccccc1)(c1ccccc1)C(C)(C)C)C(=O)C1=C2C(=C(c3ccccc3)C1=O)c1cccc3cccc2c13` [Compound 10d], in data set [3], the “LPS-induced TNF-α expression / secretion” value is “suppressed TNF-α secretion, but it did not show any dose-dependent effect”. Further, in data set [4], the “k CO release rate” value was found to be 22.6 ± 0.2 h⁻¹. Besides, in data set [5], the λem emission wavelength turned out to be 456 nm, the λex excitation wavelength was determined as 378 nm and the Φ quantum yield amounted to 0.21.

As to `C#CCOC(=O)C1=C2C(=C(c3ccccc3)C1=O)c1cccc3cccc2c13` [Compound 10e], in data set [5], the λem emission wavelength was determined as 454 nm, the λex excitation wavelength is 367 nm and the Φ quantum yield is 0.14.

For `C#CCNC(=O)C1=C2C(=C(c3ccccc3)C1=O)c1cccc3cccc2c13` [Compound 10f], in data set [5], the λem emission wavelength came to 456 nm, the λex excitation wavelength was found to be 370 nm and the Φ quantum yield is listed as 0.18.

As for `OC[C@@H]1[C@H]2CCc3c(c(-c4ccccc4)c(-c4ccccc4)c(-c4ccccc4)c3-c3ccccc3)CC[C@@H]12` [Compound 31], the cytotoxicity result was “Neither 6a (FIG. 3b) and nor the product (FIG. 3c) displayed any sign of cytotoxicity” in data set [2] (setting [9]); “not cytotoxic” in data set [2] (24 h, within the concentration range tested).

As for `CC(C)N1CCc2cc(-c3ccccc3)c3c(c2C1=O)-c1cccc2cccc-3c12` [Compound 44b], the “LPS-induced TNF-α expression / secretion” value in data set [3] is reported as “did not show any TNF-α suppression effects”. Besides, in data set [6] (15 mg/kg i.p. 1 h before and 24, 48, 72 h after TNBS), the survival rate entry was “no similar effects were observed”. Also, in data set [6] (setting [10]), the colon length entry is on record as “no similar effects were observed”, the colon thickness result was “no similar effects were observed” and the injury score entry is recorded as “no similar effects were observed”.

For `Cc1c2c(c3c(c1-c1ccccc1)-c1cccc4cccc-3c14)C(=O)N(C(C)C)CC2` [Compound 44c], the “LPS-induced TNF-α expression / secretion” value in data set [3] is recorded as “did not show any TNF-α suppression effects”.

In the case of `CN1Cc2c(c3c(c(-c4ccccc4)c2[Si](c2ccccc2)(c2ccccc2)C(C)(C)C)-c2cccc4cccc-3c24)C1=O` [Compound 44d], the “LPS-induced TNF-α expression / secretion” value in data set [3] was “did not show any TNF-α suppression effects”.

For `C#CC(C)OC(=O)C1=C2C(=C(c3ccccc3)C1=O)c1cccc3cccc2c13` (centres unmarked) [Compound 104], in data set [7], the “K CO release” value was found to be 0.012 ± 0.0003 h⁻¹.

Take `C#CC(C)(C)OC(=O)C1=C2C(=C(c3ccccc3)C1=O)c1cccc3cccc2c13` [Compound 105]: the “K CO release” value in data set [7] came to 1.28 ± 0.183 h⁻¹.

Turning to `C#CC(C)NC(=O)C1=C2C(=C(c3ccccc3)C1=O)c1cccc3cccc2c13` (centres unmarked) [Compound 108], in data set [7], the “K CO release” value stood at 0.058 ± 0.003 h⁻¹.

For the compound `C#CC(C)(C)NC(=O)C1=C2C(=C(c3ccccc3)C1=O)c1cccc3cccc2c13` [Compound 109], in data set [7], the “K CO release” value worked out at 3.31 ± 0.28 h⁻¹.

As to `C#CCCN(CCN1CCOCC1)C(=O)C1=C2C(=C(c3ccccc3)C1=O)c1cccc3cccc2c13` [Compound 110], the “time in which CO release was finished” value in data set [7] is given as “CO release was finished in 4 h”.

As for `C#CC(C)(C)NC(=O)C1=C2C(=C(SC)C1=O)c1cccc3cccc2c13` [Compound 111], the “K CO release” value in data set [7] worked out at 4.63 ± 0.28 h⁻¹.

In the case of `C#CC(C)(C)OC(=O)C1=C2C(=C(SC)C1=O)c1cccc3cccc2c13` [Compound 112], in data set [7], the “K CO release” value was determined as 1.29 ± 0.07 h⁻¹.

`C#CCOC(=O)C1=C(c2ccccc2)C(c2ccccc2)=C(c2ccccc2)C1=O` [Compound 119]: the “K CO release” value in data set [7] is 5.89 ± 0.61 h⁻¹.

Take `C#CC(C)OC(=O)C1=C(c2ccccc2)C(c2ccccc2)=C(c2ccccc2)C1=O` (centres unmarked) [Compound 120]: the “K CO release” value in data set [7] is 9.4 ± 0.02 h⁻¹.

On to `C#CC(C)Oc1ccccc1C1=C2C(=C(C(=O)N3CCOCC3)C1=O)c1cccc3cccc2c13` (centres unmarked) [Compound 125], for which, in data set [7], the “K CO release” value is 0.10 ± 0.003 h⁻¹.

As to `C#CCN(c1ccccc1C1=C2C(=C(C(=O)N3CCOCC3)C1=O)c1cccc3cccc2c13)S(C)(=O)=O` [Compound 127], in data set [7], the “K CO release” value worked out at 0.88 ± 0.01 h⁻¹.

On to `O=C1C(c2ccccc2)=C(c2ccccc2)C(c2ccccc2)=C1c1ccccc1` [TPCPD], for which the “k2 second order rate constant” value in data set [8] (CH3CN, r.t.) was 0.26 M⁻¹ s⁻¹; in data set [8] (DCE, r.t.), 0.17 M⁻¹ s⁻¹; in data set [8] (Dioxane, r.t.), 0.096 M⁻¹ s⁻¹; in data set [8] (MeOH, 37° C.) it was 1.1 M⁻¹ s⁻¹; in data set [8] (MeOH, r.t.), 0.50 M⁻¹ s⁻¹. For the same compound, the “toxicity (Triton 0.1% = 100%)” value in data set [2] (8 h, 50 μM) came to 44%; in data set [2] (8 h, 100 μM), 49%. Moreover, the cytotoxicity result in data set [2] (24 h, concentrations higher than 12.5 μM) is on record as “more than 50%”.

Consider `C1#CCCCCCC1` [cyclooctyne], for which the “time in which reaction with TPCPD finished” value in data set [1] was determined as 15 min.

Regarding fluorocyclooctyne [fluorocycolooctyne], the “time after which reaction with TPCPD had not reached completion” value in data set [1] was over 24 h.
